Experiments:
[1] = biological target: T1, human recombinant GABAAR containing α5β3γ2 subunits (benzodiazepine site) (Homo sapiens, UniProt P18507+P31644); assay: In vitro radioligand binding assay (α5-GABAAR Ki); conditions: inhibition of [3H]Ro15-1788 binding, membranes of L(tk−) cells expressing human α5β3γ2; read-out: α5-GABAAR Ki
T1 construct: expressed in transfected cells; host or cells: mouse L(tk−) cells, dexamethasone-inducible vector pMSGneo
Summary of the method: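 Displacement of 4 nM [^3H]flumazenil from the benzodiazepine site, read by filtration and scintillation, gave IC50, converted to Ki (Cheng-Prusoff, saturation-derived Kd). Receptor: human α5β3γ2 membranes from L(tk^−) cells, 50 μg protein/well; 1 h, 4° C; TP003 1 μM defined nonspecific binding.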

[2] = biological target: T2, human α5β3γ2 GABAARs in mouse L(tk−) cells (Homo sapiens, UniProt P18507+P31644); assay: In vitro electrophysiological recording assay (α5-GABAAR relative efficacy), QPatch; type: cell-based; conditions: GABA EC10-20
T2 construct: expressed in transfected cells; host or cells: mouse L(tk−) cells, dexamethasone-inducible vector pMSGneo
From the text: Mouse L(tk^−) cells stably expressing human α1β3γ2, α2β3γ2, α3β3γ2, α5β3γ2 GABAARs generated by transfection of the individual subunits in the dexamethasone-inducible expression vector pMSGneo in mouse L(tk^−) cells (Hadingham et al., 1993, Mol. Pharmacol. 43:970-975 and 1993, Mol. Pharmacol. 44:1211-1218) were used for binding and functional assays. For certain compounds, HEK293 cells stable expressing the human α1β3γ2L, α2β3γ2L, α3β3γ2L and α5β3γ2L GABAA receptors were used to evaluate their functional effects in a SyncroPatch electrophysiology assay.
For QPatch electrophysiology testing, 1 μM dexamethasone was added to the culture medium of L(tk^−) cells 24 hours before the recordings were performed. Cells were typically used for electrophysiology experiments 72-96 hours after splitting.
The efficacy of modulators was evaluated using either the automated patch-clamp platform QPatch16 (Sophion, Copenhagen, Denmark) or the SyncroPatch 384i (Nanion Technologies, Germany). Cells were harvested from flasks by enzymatic dissociation and re-suspended in serum-free medium.
For QPatch recordings, all experiments were carried out at room temperature (20-22° C.) using a standard whole cell procedure and physiological solutions. Gigaseals were formed upon execution of a combined suction/voltage protocol with subsequent increased suction leading to the whole-cell configuration. The currents recorded were acquired at 1 KHz and filtered at 0.3 KHz using a Bessel filter. Whole-cell currents were measured at a holding potential of −65 mV.
For QPatch recordings, the extracellular solution contained of (in mM): 145 NaCl, 4 KCl, 1 MgCl2, 2CaCl2, 10 HEPES, 10 D-glucose (pH 7.4), and the intracellular solution consisted of (in mM): 96 KCl, 28 CsCl, 25 KOH, 4.3 CaCl2), 1.4 MgCl2, 10 EGTA, HEPES, 3 MgATP (pH 7.2). The osmolarities of the extracellular and intracellular solutions were 305 and 295 mOsm respectively.
The effects of modulators were evaluated in the presence of a submaximal GABA concentration, giving typically 10-20% activation (GABA EC10-20) of the response elicited by a saturating GABA concentration. For QPatch recordings, to check and ensure baseline current stability before compound addition, five consecutive applications of GABA EC10-20 alone (each application with a 2 s duration, separated by minimum 1 min wash off periods) were performed before compound addition. The test compound was applied using the pipetting system of the QPatch system 1 min at least prior to co-application with GABA EC10-20. For SyncroPatch recordings, GABA EC20 alone was applied three times (1 s long applications, with wash steps in-between) before compound addition. This was followed by a 1-2 min pre-incubation with the test compound and then re-application of GABA EC10-20 in the presence of the compound. Finally, following a further wash step, a saturating concentration of GABA was applied, allowing the accurate evaluation for each cell of the percentage baseline activation elicited by the submaximal GABA applied.
The compounds were first dissolved in DMSO as a 10 mM stock and then further diluted to the testing concentrations so that the final DMSO concentration in the extracellular recording solution was kept constant at 0.1% for the QPatch recordings, or 0.2% for the SyncroPatch recordings.
The % efficacy of modulators was determined from the GABA elicited currents recorded in the presence and absence of the test compound, using the formula:
[((compound peak current−leak)−(GABA peak current−leak))/(GABA peak current−leak)]*100,
where ‘leak’ is the leak baseline current at −65 mV, ‘compound peak current’ is the current elicited by co-application of compound and GABA, and ‘GABA peak current’ is the current elicited by GABA alone during the 5th GABA application. The results were presented as ‘relative efficacy’ for each compound generally at a concentration equal or higher than 100 times their determined Ki. […]

T1 sequence (P31644 32-462): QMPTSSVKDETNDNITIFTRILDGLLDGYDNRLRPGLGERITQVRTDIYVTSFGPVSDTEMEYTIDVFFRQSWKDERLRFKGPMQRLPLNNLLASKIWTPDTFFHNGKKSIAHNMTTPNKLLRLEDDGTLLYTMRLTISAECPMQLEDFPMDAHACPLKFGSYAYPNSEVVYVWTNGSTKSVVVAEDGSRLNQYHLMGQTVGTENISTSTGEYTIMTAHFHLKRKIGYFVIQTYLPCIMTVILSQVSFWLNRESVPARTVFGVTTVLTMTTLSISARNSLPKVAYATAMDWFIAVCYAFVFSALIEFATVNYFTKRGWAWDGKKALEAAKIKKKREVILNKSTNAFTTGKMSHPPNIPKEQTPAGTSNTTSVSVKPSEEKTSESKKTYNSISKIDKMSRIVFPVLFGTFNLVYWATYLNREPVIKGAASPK
T1 sequence (P28472 26-473 partner): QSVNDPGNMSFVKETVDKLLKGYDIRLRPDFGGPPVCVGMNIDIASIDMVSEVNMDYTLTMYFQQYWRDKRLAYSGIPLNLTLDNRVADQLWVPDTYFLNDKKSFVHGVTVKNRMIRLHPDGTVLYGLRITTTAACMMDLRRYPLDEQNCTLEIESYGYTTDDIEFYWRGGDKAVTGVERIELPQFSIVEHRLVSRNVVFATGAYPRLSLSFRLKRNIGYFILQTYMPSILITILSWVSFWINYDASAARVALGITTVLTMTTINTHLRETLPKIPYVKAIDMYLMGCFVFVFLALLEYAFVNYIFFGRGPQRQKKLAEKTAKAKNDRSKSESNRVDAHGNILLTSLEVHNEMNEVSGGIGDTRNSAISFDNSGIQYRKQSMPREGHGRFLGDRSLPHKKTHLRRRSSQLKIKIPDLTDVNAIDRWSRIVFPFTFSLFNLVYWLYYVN
T1 sequence (P18507 40-475): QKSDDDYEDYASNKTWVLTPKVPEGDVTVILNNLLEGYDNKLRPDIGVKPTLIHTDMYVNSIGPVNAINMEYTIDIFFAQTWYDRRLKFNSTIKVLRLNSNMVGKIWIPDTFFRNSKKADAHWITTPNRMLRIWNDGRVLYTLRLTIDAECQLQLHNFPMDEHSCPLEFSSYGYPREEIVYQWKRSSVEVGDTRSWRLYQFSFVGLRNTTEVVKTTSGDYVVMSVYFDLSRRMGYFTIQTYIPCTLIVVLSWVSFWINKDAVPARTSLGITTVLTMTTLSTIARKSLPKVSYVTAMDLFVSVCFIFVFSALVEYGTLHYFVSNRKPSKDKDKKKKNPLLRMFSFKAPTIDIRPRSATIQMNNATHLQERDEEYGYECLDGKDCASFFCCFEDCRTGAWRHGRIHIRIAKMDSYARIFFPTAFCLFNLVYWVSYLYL
T2 sequence (P31644 32-462): as the sequence (P31644 32-462) above
T2 sequence (P28472 26-473 partner): as the sequence (P28472 26-473 partner) above
T2 sequence (P18507 40-475): as the sequence (P18507 40-475) above

SMILES	Ki [1]	α5-GABAAR Relative Efficacy (to DMCM), Qpatch ([2]; Conc 0.3 μM)	α5-GABAAR Relative Efficacy (to DMCM), Qpatch ([2]; Conc 0.1 μM)	α5-GABAAR Relative Efficacy (to DMCM), Qpatch ([2]; Conc 3 μM)	α5-GABAAR Relative Efficacy (to DMCM), Qpatch ([2]; Conc 1 μM)
COc1nc(-c2ccn3nc(N)nc3c2)ccc1NC(=O)c1c(-c2ccccc2)noc1C.Cl [Example 61, N-[6-(2-Amino-[1,2,4]triazolo[1,5-a]pyridin-7-yl)-2-methoxy-3-pyridyl]-5-methyl-3-phenyl-isoxazole-4-carboxamide hydrochloride]	1.4 nM	−0.85			
COc1nc(-n2cnnc2)ccc1NC(=O)c1c(-c2ccccc2)noc1C [Example 62, N-[2-Methoxy-6-(1,2,4-triazol-4-yl)-3-pyridyl]-5-methyl-3-phenyl-isoxazole-4-carboxamide]	1.9 nM	−0.61			
COC(=O)c1ncc(-c2ccc(NC(=O)c3c(-c4ccccc4)noc3C)c(OC)n2)cn1 [Example 70, Methyl 5-[6-methoxy-5-[(5-methyl-3-phenyl-isoxazole-4-carbonyl)amino]-2-pyridyl]pyrimidine-2-carboxylate]	0.7 nM		−0.89		
COc1ccc(-c2cnc(NC(=O)c3c(-c4ccccc4)noc3C)c(OC)n2)cn1 [Example 71, N-[3-Methoxy-5-(6-methoxy-3-pyridyl)pyrazin-2-yl]-5-methyl-3-phenyl-isoxazole-4-carboxamide]	2.8 nM	−0.94			
COc1ncc(-c2cnc(NC(=O)c3c(-c4ccccc4)noc3C)c(OC)n2)cn1 [Example 72, N-[3-Methoxy-5-(2-methoxypyrimidin-5-yl)pyrazin-2-yl]-5-methyl-3-phenyl-isoxazole-4-carboxamide]	2 nM	−1.04			
CNC(=O)c1ncc(-c2ccc(NC(=O)c3c(-c4ccccc4)noc3C)c(OC)n2)cn1 [Example 75, N-[2-Methoxy-6-[2-(methylcarbamoyl)pyrimidin-5-yl]-3-pyridyl]-5-methyl-3-phenyl-isoxazole-4-carboxamide]	0.6 nM		−0.92		
COc1nc(-c2ccc3[nH]c(=O)n(C)c3c2)ccc1NC(=O)c1c(-c2ccccc2)noc1C [Example 77, N-(2-Methoxy-6-(3-methyl-2-oxo-2,3-dihydro-1H-benzo[d]imidazol-5-yl)pyridin-3-yl)-5-methyl-3-phenylisoxazole-4-carboxamide]	16.1 nM			−0.22	
COc1nc(-c2cnccc2N)ccc1NC(=O)c1c(-c2ccccc2)noc1C [Example 78, N-(4′-Amino-6-methoxy-[2,3′-bipyridin]-5-yl)-5-methyl-3-phenylisoxazole-4-carboxamide]	1 nM		−0.42		
COc1nc(-c2cnc3n2CCOC3)ccc1NC(=O)c1c(-c2ccccc2)noc1C [Example 79, N-[6-(6,8-Dihydro-5H-imidazo[2,1-c][1,4]oxazin-3-yl)-2-methoxy-3-pyridyl]-5-methyl-3-phenyl-isoxazole-4-carboxamide]	0.8 nM		−0.76		

Second part, the compound after the results:

Ki [1]	α5-GABAAR Relative Efficacy (to DMCM), Qpatch ([2]; Conc 0.3 μM)	α5-GABAAR Relative Efficacy (to DMCM), Qpatch ([2]; Conc 0.1 μM)	α5-GABAAR Relative Efficacy (to DMCM), Qpatch ([2]; Conc 3 μM)	α5-GABAAR Relative Efficacy (to DMCM), Qpatch ([2]; Conc 1 μM)	SMILES
19.5 nM			−0.65		CCn1nc(-c2nccs2)cc1-c1ccc(NC(=O)c2c(-c3ccccc3)noc2C)c(OC)n1 [Example 80, N-(6-(1-Ethyl-3-(thiazol-2-yl)-1H-pyrazol-5-yl)-2-methoxypyridin-3-yl)-5-methyl-3-phenylisoxazole-4-carboxamide]
8 nM				−1.26	COc1nc(-c2cc(C)nc(N)c2)ccc1NC(=O)c1c(-c2ccccc2)noc1C [Example 81, N-(2′-Amino-6-methoxy-6′-methyl-[2,4′-bipyridin]-5-yl)-5-methyl-3-phenylisoxazole-4-carboxamide]
7.9 nM				−0.65	COc1nc(-c2ccnc(N(C)C)c2)ccc1NC(=O)c1c(-c2ccccc2)noc1C [Example 82, N-(2′-(Dimethylamino)-6-methoxy-[2,4′-bipyridin]-5-yl)-5-methyl-3-phenyl-isoxazole-4-carboxamide]
10.7 nM			−0.51		COc1nc(-c2cnn(C3CCCCO3)n2)ccc1NC(=O)c1c(-c2ccccc2)noc1C (stereo not drawn) [Example 84, N-(2-Methoxy-6-(2-(tetrahydro-2H-pyran-2-yl)-2H-1,2,3-triazol-4-yl)pyridin-3-yl)-5-methyl-3-phenylisoxazole-4-carboxamide]
3.2 nM				−0.65	COc1nc(-c2ccncc2N)ccc1NC(=O)c1c(-c2ccccc2)noc1C [Example 86, N-(3′-Amino-6-methoxy-[2,4′-bipyridin]-5-yl)-5-methyl-3-phenylisoxazole-4-carboxamide]
3.4 nM				−0.58	COc1nc(-c2cncc(-n3cccn3)c2)ccc1NC(=O)c1c(-c2ccccc2)noc1C [Example 90, N-(6-Methoxy-5′-(1H-pyrazol-1-yl)-[2,3′-bipyridin]-5-yl)-5-methyl-3-phenylisoxazole-4-carboxamide]
10.1 nM			−0.45		COc1nc(-c2ccc3nnn(C)c3c2)ccc1NC(=O)c1c(-c2ccccc2)noc1C [Example 91, N-(2-Methoxy-6-(1-methyl-1H-benzo[d] [1,2,3]triazol-6-yl)pyridin-3-yl)-5-methyl-3-phenylisoxazole-4-carboxamide]
3 nM	−0.66				COc1nc(-c2cnc(N3CCCC(CO)C3)nc2)ccc1NC(=O)c1c(-c2ccccc2)noc1C (stereo not drawn) [Example 92, N-(6-(2-(3-(Hydroxymethyl)piperidin-1-yl)pyrimidin-5-yl)-2-methoxypyridin-3-yl)-5-methyl-3-phenylisoxazole-4-carboxamide]
8.2 nM				−0.73	COc1nc(-c2cncnc2OC)ccc1NC(=O)c1c(-c2ccccc2)noc1C [Example 93, N-(2-Methoxy-6-(4-methoxypyrimidin-5-yl)pyridin-3-yl)-5-methyl-3-phenyl-isoxazole-4-carboxamide]
21.7 nM			−0.50		COc1nc(-c2cncs2)ccc1NC(=O)c1c(-c2ccccc2)noc1C [Example 94, N-(2-Methoxy-6-(thiazol-5-yl)pyridin-3-yl)-5-methyl-3-phenylisoxazole-4-carboxamide]
1.4 nM	−0.66				COc1nc(-c2cncc(C(=O)N(C)C)c2)ccc1NC(=O)c1c(-c2ccccc2)noc1C [Example 95, N-(5′-(Dimethylcarbamoyl)-6-methoxy-[2,3′-bipyridin]-5-yl)-5-methyl-3-phenyl-isoxazole-4-carboxamide]
1.9 nM	−0.52				COc1nc(-c2ccc3nncn3c2)ccc1NC(=O)c1c(-c2ccccc2)noc1C [Example 96, N-(6-([1,2,4] Triazolo[4,3-a]pyridin-6-yl)-2-methoxypyridin-3-yl)-5-methyl-3-phenylisoxazole-4-carboxamide]
